Series [1] has as its system HIV-1 resistant to Nevirapine (N119). Kind of series: microbe, parasite or virus in culture. It is filed as cell-based. The note with it: for IC50: Human immunodeficiency virus 1, CEM-SS, read-out: IC50, strain resistant to Nevirapine; for SI (selectivity index): Table 3, strain resistant to Nevirapine. How it is done:
The effects of the compounds were evaluated on the replication of HIV-1 (see Table 2) on CEM-SS cells (cell lines of the lymphocytic lineage) strongly infected with HIV-1 LAI as described by Moog et al. (Antiviral Research (1994), 24, 275-288). The CEM-SS and the HIV-1 resistant to Nevirapine (N119) carrying a point mutation at codon 181 of the IT, were supplied respectively by P. NARA and D. RICHMAN through the intermediary of the AIDS Research and Reference Reagent Program, Division of AIDS, NIAID, NIH (USA) (Catalogue references : No. 776 and No. 1392).
(§1) The virus production was measured by quantifying the activity of the inverse transcriptase associated with viral particles released into the culture supernatant. In short, cells were infected with 100 TCID50 for 30 minutes; after adsorption of the virus, unbound particles were removed by two washings and the cells were cultivated in the presence of different concentrations of the compounds tested for 5 days before determining the viral production. The concentration inhibiting 50% of the viral multiplication (IC50) came from the computer plot of the median effect of the dose effect results (Chou et al. Elsevier Science Publishers, Cambridge U.K. (1985), 19-28).

Series [2] deals with T1, IT of recombinant HIV-1 (Human immunodeficiency virus type 1 group M subtype B, UniProt P03369).
T1 construct: purify the IT enzyme of the recombinant HIV-1; made in house; host or cells: yeast cells transformed with the pAB 24/IT-4 vector
Nature of the series: inhibition of the inverse transcriptase of recombinant HIV-1. It is filed as biochemical. How it is done:
Yeast cells transformed with the pAB 24/IT-4 vector were used to purify the IT enzyme of the recombinant HIV-1 as described by Sallafranque-Andreola et al. (1989 Eur. J. Biochem. 184, 364-374).
(§2) Incubation was carried out at 37° C. for 10 minutes in the presence of various matrix-primers.
(§3) a) Poly C-oligo dG: the reaction mixture contained a final volume of 0.05 ml, Tris-HCl 50 mM pH 8.0, MgCl2 5 mM, dithiothreitol 4 mM, 0.48 A260 /ml of poly C-oligo dG (5:1), 1.0 μCi of [^3 H]dGTP (28 Ci/mmole), dGTP 2 μM, KCl 80 mM, 1 μg of bovine serum albumin and IT 20-50 nM.
(§4) b) Poly A-oligo dT: the same conditions as in a), except that 0.48 A260 /ml of poly A-oligo dT (5:1), 0.5 μCi of [^3 H]dTTP (46 Ci/mmole), dTTP 20 μM were used.
(§5) The reactions were stopped by adding in the cold 1 ml of 10% trichloroacetic acid plus sodium pyrophosphate 0.1 M. The precipitates were filtered through nitrocellulose membranes, washed with 2% trichloroacetic acid, dried and counted in a PPO/POPOP/toluene scintillation mixture.
(§6) All the compounds were dissolved in dimethyl#sulphoxide (DMSO). The test samples were prepared in the presence of the same final concentration of DMSO. IC50 is the concentration required to inhibit the activity of the IT of the recombinant HIV-1 by 50%.

Series [3] has as its system HIV-1 LAI. Kind of series: anti-HIV-1 activity: replication of HIV-1 LAI on CEM-SS cells. It counts as cell-based. As to conditions: Table 2, HIV-1 LAI, CEM-SS cells; for IC50: Human immunodeficiency virus 1, 120 h, 5 days, read-out: IC50, anti-HIV-1 activity. How it is done: The CEM-SS and the HIV-1 resistant to Nevirapine (N119) carrying a point mutation at codon 181 of the IT, were supplied respectively by P. NARA and D. RICHMAN through the intermediary of the AIDS Research and Reference Reagent Program, Division of AIDS, NIAID, NIH (USA) (Catalogue references : No. 776 and No. 1392).
as §1

A short description of series [4]: cytotoxicity on non-infected cells (MTT test). It is filed as cell-based. The note with it: human; Table 2; non-infected CEM-SS cells, MTT, 5 days. How it is done: (§7) In parallel experiments, the cytotoxicity of the molecules was measured on non-infected cells, after an incubation of 5 days in the presence of these molecules, by using a […] titration (MTT test) based on the ability of the mitochondrial dehydrogenases of the living cells to reduce 3-(4,5-dimethylthiazol-2-yl)-2,5-diphenyltetrazolium bromide in formazan (Mosmann et al. J. Immunol. Methods ([…]), 65, 55-63). The concentration cytotoxic at 50% (CC50) is the concentration at which the DO540 has been reduced to half and is calculated by using the program mentioned above.

For series [5], the system named is CEM-SS cells. Nature of the series: cytotoxicity on non-infected cells (MTT test). As to conditions: Table 3; non-infected cells, MTT, 5 days. It is filed as cell-based. How it is done: as §7
Series [6] addresses inverse transcriptase of HIV-1 (HIV-1 M:B_ARV2/SF2, UniProt P03369). Nature of the series: enzymatic kinetic analysis of IT inhibition (Lineweaver-Burk). It is filed as biochemical. The method, then:
FIG. 12 is a double-reciprocal (Lineweaver-Burk) representation of the inhibition of the inverse transcriptase of HIV-1 by compound 7c with the poly C-oligo dG as a matrix-primer couple and dGPT as substrate.
FIG. 13 is a double-reciprocal representation, similar to […], in which the poly A-oligo dT is used as a matrix-primer couple and dTTP as substrate.
as §2, §3, §4, §5

For series [7], the target named is IT of HIV-2 (Human immunodeficiency virus type 2 (ISOLATE ROD), UniProt P04584). Kind of series: inhibition of the inverse transcriptase of HIV-2. It counts as biochemical. The note with it: at concentrations at which the IT of HIV-1 was well inhibited (FIG. 9). The method, then: The system for the expression of the IT of HIV-2 in E.coli (B. Muller et al. (1991 J. Biol. Chem. 266, 14708-14713) was provided by Dr. R. Goody. The IT of the HIV-2 was purified in the same way as the IT of the HIV-1.
as §2, §3, §4, §5, §6

As a reminder, the IC50 is the concentration that gives 50% inhibition. The term CC50 denotes the concentration that lowers cell viability or growth by half.

Chain of IT of HIV-2 (P04584 613-1171): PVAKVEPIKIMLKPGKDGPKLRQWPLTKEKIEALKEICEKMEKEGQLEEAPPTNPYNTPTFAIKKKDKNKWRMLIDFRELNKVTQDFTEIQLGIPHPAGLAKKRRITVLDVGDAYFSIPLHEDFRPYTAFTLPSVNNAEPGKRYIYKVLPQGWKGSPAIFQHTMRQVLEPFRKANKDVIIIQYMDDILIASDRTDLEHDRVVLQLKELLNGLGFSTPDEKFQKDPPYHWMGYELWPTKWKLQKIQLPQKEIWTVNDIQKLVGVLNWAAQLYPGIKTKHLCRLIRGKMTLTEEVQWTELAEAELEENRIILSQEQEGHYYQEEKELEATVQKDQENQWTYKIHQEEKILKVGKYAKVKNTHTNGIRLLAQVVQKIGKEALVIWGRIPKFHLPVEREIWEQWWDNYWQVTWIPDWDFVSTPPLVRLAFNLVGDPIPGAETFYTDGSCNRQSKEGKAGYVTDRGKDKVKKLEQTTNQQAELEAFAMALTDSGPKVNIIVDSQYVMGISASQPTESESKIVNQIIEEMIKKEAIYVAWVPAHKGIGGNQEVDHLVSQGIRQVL

Consider `CCOC(=O)c1c(Sc2cc(C)cc(C)c2)c(CC)c(C)[nH]c1=O` [Compound 15, 5-ethyl-6-methyl-3-carbethoxy-4-(3', 5'-dimethylphenyl)thio-pyridin-2(1H)-one], for which the 50% inhibitory concentration (IC50) in series [1] was determined as 2200 nM; in series [2], 600 nM; in series [3], 3 nM. Besides, the “SI (selectivity index)” value in series [1] is above 4.5; in series [3] it was above 3333. The CC50 at 120 h in series [4] is above 10000 nM. Further, in series [5], the CC50 is above 10000 nM.

`Cc1cc(C)cc(Sc2c(C)cnc(O)c2[N+](=O)[O-])c1` [Compound 7a, 5-methyl-3-nitro-4-(3', 5'-dimethylphenyl)thiopyridin-2(1H)-one]: the IC50 in series [1] was above 10000 nM; in series [2], above 10000 nM; in series [3] it was 120 nM. The “SI (selectivity index)” value in series [3] is above 83. Besides, in series [4], the CC50 at 120 h is above 10000 nM. In series [5], this compound gave a CC50 above 10000 nM.

Take `Cc1cc(C)cc(Sc2c(C)cnc(O)c2N)c1` [Compound 8a, 3-amino-5-methyl-4-(3', 5'-dimethylphenyl)-thio-pyridin-2(1H)-one]: the IC50 in series [1] is above 10000 nM; in series [2], 100 nM; in series [3], 10 nM. Also, in series [3], the “SI (selectivity index)” value is listed as above 1000. In series [4], the CC50 at 120 h is above 10000 nM. In series [5], this compound gave a CC50 above 10000 nM.

Consider `CCc1c(C)nc(O)c(N)c1Sc1cc(C)cc(C)c1` [Compound 8c, 3-amino-5-ethyl-6-methyl-4-(3', 5'-dimethylphenyl)thio-pyridin-2(1H)-one], for which the IC50 in series [1] worked out at 2100 nM; in series [2] it was 15 nM; in series [3], 14 nM. Besides, the “SI (selectivity index)” value is above 4 in series [1] and above 714 in series [3]. In addition, the type of inhibition entry in series [6] (as regards dGTP substrate, poly C-oligo dG matrix-primer (FIG. 12)) is given as “non-competitive”; in series [6] (poly A-oligo dT matrix-primer, dTTP substrate (FIG. 13)), “competitive”. In series [7], the “effect on activity of the IT of HIV-2” value is “not affected”. For the same compound, in series [2] (FIG. 9), the “effect on activity of the IT of HIV-1 in HIV-1/HIV-2 comparison” value is “well inhibited”. Also, the “IT inhibition according to matrix-primer couple” value in series [2] (poly C-oligo dG compared with poly A-oligo dT (FIG. 9)) was “gave the same result”. The 50% cytotoxic concentration (CC50) at 120 h in series [4] was above 10000 nM. The compound further registered a CC50 in series [5] above 10000 nM.

For the origin of these results see patent US6015820A, “4-Aryl-thio-pyridin-2(1H)-ones, medicines containing them and their uses in the treatment of illnesses linked to HIV” (priority 1995, dated 2000).
